# Assay results published in paper PMC4503722, “Novel Phenotypic Outcomes Identified for a Public Collection of Approved Drugs from a Publicly Accessible Panel of Assays” (PLoS ONE, 2015).
# Read-outs that look alike come from different tables or passages of the source.
# Columns and labels:
# INS-1E cells = assay: cells; assay type: cell-based, rat
# NCI-H716 cells = assay: cells; assay type: cell-based, Human; settings: Homo sapiens
# [1] = FAERS, ref [45], cited from earlier work; for Adjusted Z-Score: Drug A with vs without methotrexate; for # of Specific AE Occurrence With Drug A With Drug B: with methotrexate; for # of Specific AE Occurrence With Drug A Without Drug B: without methotrexate
# HCT116 = assay: cells; assay type: cell-based; settings: Homo sapiens
# [2] = tested on: HCT116 cells treated with a GSK3β inhibitor; assay: cells; assay type: cell-based; settings: Homo sapiens
# SW480 = assay: cells; assay type: cell-based; settings: Homo sapiens
# DLD-1 = assay: cells; assay type: cell-based; settings: Homo sapiens
# [3] = tested on: nuclear β-catenin in C2C12 cells; assay: cells; assay type: cell-based; settings: Mus musculus, C2C12; read-out: Wnt Pathway
# HeLa cells = assay: cells; assay type: cell-based; settings: Homo sapiens, HeLa, read-out: CellCycle G2/M
# [4] = tested on: tonic K+ channel activity in INS-1E cells; assay: cells; assay type: cell-based, rat; settings: Rattus norvegicus, INS-1E, read-out: K+ channel assay IC50
# SUR2/Kir6.2 = settings: read-out: SUR2/Kir6.2 inhibition IC50; cited from earlier work
# [5] = tested on: endothelial tube formation in co-cultures of ECFCs and ADSCs treated with VEGF; assay: cells; assay type: cell-based, human; settings: Homo sapiens, read-out: Anti-Angio IC50
molecule,measurement,setting,value
N[C@@H](Cc1ccc(N(CCCl)CCCl)cc1)C(=O)O [Melphalan],EC50,"INS-1E cells; Rattus norvegicus, INS-1E; read-out: Insulin Secretion",> 10 µM
same,EC50,"NCI-H716 cells; NCI-H716, read-out: GLP 1 Secretion",> 10 µM
same,Adjusted Z-Score,[1]; AE BONE DISORDER,-3.0915
same,# of Specific AE Occurrence With Drug A With Drug B,[1]; AE BONE DISORDER,0
same,# of Specific AE Occurrence With Drug A Without Drug B,[1]; AE BONE DISORDER,731
same,Adjusted Z-Score,[1]; AE OSTEOMYELITIS,-3.729
same,# of Specific AE Occurrence With Drug A With Drug B,[1]; AE OSTEOMYELITIS,9
same,# of Specific AE Occurrence With Drug A Without Drug B,[1]; AE OSTEOMYELITIS,479
same,Adjusted Z-Score,[1]; AE OSTEONECROSIS OF JAW,-3.716
same,# of Specific AE Occurrence With Drug A With Drug B,[1]; AE OSTEONECROSIS OF JAW,17
same,# of Specific AE Occurrence With Drug A Without Drug B,[1]; AE OSTEONECROSIS OF JAW,557
same,Adjusted Z-Score,[1]; AE OSTEONECROSIS,-3.771
same,# of Specific AE Occurrence With Drug A With Drug B,[1]; AE OSTEONECROSIS,1
same,# of Specific AE Occurrence With Drug A Without Drug B,[1]; AE OSTEONECROSIS,786
same,IC50,"HCT116; HCT-116, basal, HCT116, read-out: Basal_Viability ATP HCT116",> 20 µM
same,IC50,"[2]; HCT-116, HCT116 pretreated with GSK3b inhibitor, read-out: GSK3b inh pretreated_Viability ATP HCT116",15.4 µM
same,IC50,"SW480; basal, SW480, read-out: Basal_Viability ATP SW480",> 20 µM
same,IC50,"DLD-1; basal, DLD-1, read-out: Basal_Viability ATP DLD-1",> 20 µM
same,EC50,[3],> 10 µM
same,EC50,"HeLa cells; S2 Table, 20 = no response at highest concentration",5.36 µM
"CCCNCC(O)COc1ccccc1C(=O)CCc1ccccc1 (stereo not shown) [propafenone, reference compound]",EC50,"INS-1E cells; Rattus norvegicus, INS-1E, read-out: Ins. sec. EC50",4.9 µM
same,EC50,"INS-1E cells; Rattus norvegicus, INS-1E, read-out: Insulin Secretion",4.92 µM
same,IC50,[4],5.4 µM
same,EC50,"NCI-H716 cells; NCI-H716, read-out: GLP1 sec. EC50",> 10 µM
same,IC50,"HCT116; HCT-116, 72 h, read-out: HCT-116 viab. IC50",> 20 µM
same,IC50,"[2]; HCT-116, 72 h, read-out: HCT-116 (GSK3β) viab. IC50",> 20 µM
same,IC50,"SW480; SW480, 72 h, read-out: SW480 viab. IC50",> 20 µM
same,IC50,SUR2/Kir6.2,2.2 µM
same,IC50,[5],> 10 µM
same,IC50,"DLD-1; DLD-1, 72 h, read-out: DLD-1 viab. IC50",> 20 µM
same,EC50,HeLa cells,> 10 µM
"Pegfilgrastim: Drug A generic name in the FAERS table (protein, UniProt P09919 31-207, looked up, pegfilgrastim; PEG; N-terminal Met) Granulocyte …: TPLGPASSLPQSFLLKCLEQVRKIQGDGAALQEKLVSECATYKLCHPEELVLLGHSLGIPWAPLSSCPSQALQLAGCLSQLHSGLFLYQGLLQALEGISPELGPTLDTLQLDVADFATTIWQQMEELGMAPALQPTQGAMPAFASAFQRRAGGVLVASHLQSFLEVSYRVLRHLAQP",Adjusted Z-Score,[1]; AE BONE PAIN,-2.755
same,# of Specific AE Occurrence With Drug A With Drug B,[1]; AE BONE PAIN,13
same,# of Specific AE Occurrence With Drug A Without Drug B,[1]; AE BONE PAIN,641
